Laboratory results reported in PubChem BioAssay AID1259411 (Chemical Carcinogenesis Research Information System (CCRIS), 2018).
Activity calls are given as the source filed them. No rule for the calls is given here.

Tested on: rodent carcinogenicity bioassays, tumor incidence
Experiment: CCRIS carcinogenicity studies
Outline: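 Archive of carcinogenicity, mutagenicity, tumor promotion and tumor inhibition results drawn from journals, NCI reports and other sources, expert-reviewed; covers 1985-2011 and is no longer updated.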

Question: `O=[N+]([O-])c1cc2c3c(cccc3c1)-c1ccccc1-2` was tested. Which carcinogen call (Species: MOUSE, Strain/Sex: B6C3F1/MALE, Route: INTRAPERITONEAL, Dose: 0, 400 NMOL IN 35 µL DMSO ON DAYS 1 (1/7 TOTAL DOSE), 8 (2/7 TOTAL DOSE), AND 15 (4/7 TOTAL DOSE) AFTER BIRTH (STUDY DUR) did it give?
Answer: inactive; negative

Question: `Nc1cc([N+](=O)[O-])ccc1C(=O)O` was tested. Which carcinogen call (Species: MOUSE, Strain/Sex: B6C3F1/FEMALE, Route: ORAL, Dose: 0, 0.46, 1.0% OF DIET, TWA, Dose: 0, 0.46, 1.0% OF DIET, TWA) did it give?
Answer: inactive; negative

Question: And the carcinogen call (Species: MOUSE, Strain/Sex: B6C3F1/MALE, Route: ORAL, Dose: 0, 0.46, 1.0% OF DIET, TWA, Dose: 0, 0.46, 1.0% OF DIET, TWA)?
Answer: inactive; negative

Question: And the carcinogen call (Species: RAT, Strain/Sex: F344/FEMALE, Route: ORAL, Dose: 0, 0.46, 1.5% OF DIET, TWA, Dose: 0, 0.46, 1.5% OF DIET, TWA)?
Answer: inactive; negative

Question: What about the carcinogen call (Species: RAT, Strain/Sex: F344/MALE, Route: ORAL, Dose: 0, 0.46, 1.5% OF DIET, TWA, Dose: 0, 0.46, 1.5% OF DIET, TWA) of the same compound?
Answer: inactive; negative

Question: For `O=C1OCCO1`, which carcinogen call (Species: RAT, Strain/Sex: STRAIN-CD/FEMALE, Route: ORAL, Dose: 25000, 50000 PPM IN DIET FOR 78 WK) is on record?
Answer: inactive; negative

Question: And the carcinogen call (Species: RAT, Strain/Sex: STRAIN-CD/MALE, Route: ORAL, Dose: 25000, 44360 PPM IN DIET FOR 78 WK, TWA)?
Answer: inactive; negative

Question: For `Nc1ccc(Sc2ccc(N)cc2)cc1`, which carcinogen call (Species: MOUSE, Strain/Sex: B6C3F1/FEMALE, Route: ORAL, Dose: 0, 2500, 5000 PPM IN DIET, Dose: 0, 2500, 5000 PPM IN DIET, Tumor Site: Type of Lesion: LIVER: HEPATOCELLULAR CARCINOMA, THYROID GLAND: FOLLICULAR CELL ADENOMA OR CARCINOMA) is on record?
Answer: active; positive

Question: And the carcinogen call (Species: MOUSE, Strain/Sex: B6C3F1/MALE, Route: ORAL, Dose: 0, 2500, 5000 PPM IN DIET, Dose: 0, 2500, 5000 PPM IN DIET, Tumor Site: Type of Lesion: LIVER: HEPATOCELLULAR ADENOMA OR CARCINOMA, THYROID GLAND: FOLLICULAR CELL ADENOMA OR CARCINOMA)?
Answer: active; positive

Question: And the carcinogen call (Species: RAT, Strain/Sex: F344/FEMALE, Route: ORAL, Dose: 0, 1500, 3000 PPM IN DIET, Dose: 0, 1500, 3000 PPM IN DIET, Tumor Site: Type of Lesion: THYROID GLAND: FOLLICULAR CELL CARCINOMA, UTERUS: ADENOCARCINOMA, NOS)?
Answer: active; positive

Question: What about the carcinogen call (Species: RAT, Strain/Sex: F344/MALE, Route: ORAL, Dose: 0, 1500, 3000 PPM IN DIET (68-72 WEEKS), Dose: 0, 1500, 3000 PPM IN DIET (68-72 WEEKS), Tumor Site: Type of Lesion: LIVER: HEPATOCELLULAR ADENOMA OR CARCINOMA, COLON: ADENOCARCINOMA, NOS, THYROID GLAND: FOLLICULAR CELL ADENOMA OR CARCIN, Tumor Site: Type of Lesion: LIVER: HEPATOCELLULAR ADENOMA OR CARCINOMA, COLON: ADENOCARCINOMA, NOS, THYROID GLAND: FOLLICULAR CELL ADENOMA OR CARCIN) of the same compound?
Answer: active; positive

Question: With `CC(COc1ccccc1)N(CCCl)Cc1ccccc1` (configuration not stated) as the compound, how does the carcinogen call (Species: MOUSE, Strain/Sex: B6C3F1/FEMALE, Route: INTRAPERITONEAL, Dose: 0, 12.5, 25 MG/KG 3/WK FOR 50 OR 52 WK, Dose: 0, 12.5, 25 MG/KG 3/WK FOR 50 OR 52 WK, Tumor Site: Type of Lesion: PERITONEAL CAVITY: SARCOMA) read?
Answer: active; positive

Question: And the carcinogen call (Species: MOUSE, Strain/Sex: B6C3F1/MALE, Route: INTRAPERITONEAL, Dose: 0, 12.5, 25 MG/KG 3/WK FOR 50 OR 52 WK, Dose: 0, 12.5, 25 MG/KG 3/WK FOR 50 OR 52 WK, Tumor Site: Type of Lesion: PERITONEAL CAVITY: SARCOMA)?
Answer: active; positive

Question: And the carcinogen call (Species: MOUSE, Strain/Sex: STRAIN-A/MALE,FEMALE, Route: INTRAPERITONEAL, Dose: 40, 100, 200 MG/KG IN TRICAPRYLIN, Dose: 40, 100, 200 MG/KG IN TRICAPRYLIN, Tumor Site: Type of Lesion: LUNG: ADENOMA)?
Answer: active; positive

Question: What about the carcinogen call (Species: RAT, Strain/Sex: SPRAGUE-DAWLEY/FEMALE, Route: INTRAPERITONEAL, Dose: 0, 5, 10 MG/KG 3/WK FOR 52 WKS, Dose: 0, 5, 10 MG/KG 3/WK FOR 52 WKS, Tumor Site: Type of Lesion: PERITONEAL CAVITY: SARCOMA) of the same compound?
Answer: active; positive

Question: And the carcinogen call (Species: RAT, Strain/Sex: SPRAGUE-DAWLEY/MALE, Route: INTRAPERITONEAL, Dose: 0, 5, 10 MG/KG 3/WK FOR 52 WK, Dose: 0, 5, 10 MG/KG 3/WK FOR 52 WK, Tumor Site: Type of Lesion: PERITONEAL CAVITY: SARCOMA)?
Answer: active; positive

Question: `COc1ccc(O)c(C(C)(C)C)c1` was tested. Which carcinogen call (Species: HAMSTER, Strain/Sex: SYRIAN/MALE, Route: ORAL, Dose: 1% IN DIET FOR 24 WK (STUDY DURATION: 24 WK), Tumor Site: Type of Lesion: FORESTOMACH: PAPILLOMA) did it give?
Answer: active; positive

Question: `Cc1ccccc1[N+](=O)[O-]` was tested. Which carcinogen call (Species: MOUSE, Strain/Sex: B6C3F1/FEMALE, Route: ORAL, Dose: 0, 1250, 2500, 5000 PPM IN DIET FOR 105 WK (STUDY DURATION: 105 WK), Dose: 0, 1250, 2500, 5000 PPM IN DIET FOR 105 WK (STUDY DURATION: 105 WK), Tumor Site: Type of Lesion: CIRCULATORY SYSTEM: HEMANGIOSARCOMA, LARGE INTESTINE (CECUM): CARCINOMA, LIVER: HEPATOCELLULAR ADENOMA, HEPATOCELLULAR C, Tumor Site: Type of Lesion: CIRCULATORY SYSTEM: HEMANGIOSARCOMA, LARGE INTESTINE (CECUM): CARCINOMA, LIVER: HEPATOCELLULAR ADENOMA, HEPATOCELLULAR C) did it give?
Answer: active; positive

Question: And the carcinogen call (Species: MOUSE, Strain/Sex: B6C3F1/MALE, Route: ORAL, Dose: 0, 1250, 2500, 5000 PPM IN DIET FOR 105 WK (STUDY DURATION: 105 WK), Dose: 0, 1250, 2500, 5000 PPM IN DIET FOR 105 WK (STUDY DURATION: 105 WK), Tumor Site: Type of Lesion: CIRCULATORY SYSTEM: HEMANGIOSARCOMA, LARGE INTESTINE (CECUM): CARCINOMA)?
Answer: active; positive

Question: And the carcinogen call (Species: RAT, Strain/Sex: F344/FEMALE, Route: ORAL, Dose: 0, 625, 1250, 2000 PPM IN DIET FOR 105 WK (STUDY DURATION: 105 WK), Dose: 0, 625, 1250, 2000 PPM IN DIET FOR 105 WK (STUDY DURATION: 105 WK), Tumor Site: Type of Lesion: SKIN (SUBCUTANEOUS): FIBROMA, FIBROMA OR FIBROSARCOMA, MAMMARY GLAND: FIBROADENOMA: LIVER: HEPATOCELLULAR ADENOMA)?
Answer: active; positive

Question: And the carcinogen call (Species: RAT, Strain/Sex: F344/MALE, Route: ORAL, Dose: 0, 625, 1250, 2000 PPM IN DIET FOR 105 WK (STUDY DURATION: 105 WK), Dose: 0, 625, 1250, 2000 PPM IN DIET FOR 105 WK (STUDY DURATION: 105 WK), Tumor Site: Type of Lesion: MESOTHELIUM: MALIGNANT MESOTHELIOMA, SKIN (SUBCUTANEOUS): LIPOMA, FIBROMA, FIBROSARCOMA, FIBROMA OR FIBROSARCOMA, MAMMAR, Tumor Site: Type of Lesion: MESOTHELIUM: MALIGNANT MESOTHELIOMA, SKIN (SUBCUTANEOUS): LIPOMA, FIBROMA, FIBROSARCOMA, FIBROMA OR FIBROSARCOMA, MAMMAR)?
Answer: active; positive

Question: And the carcinogen call (Species: RAT, Strain/Sex: F344/MALE, Route: ORAL, Dose: 0, 2000, 5000 PPM IN DIET FOR FIRST 3 MO (STUDY DURATION: 105 WK), Dose: 0, 2000, 5000 PPM IN DIET FOR FIRST 3 MO (STUDY DURATION: 105 WK), Tumor Site: Type of Lesion: LIVER: HEPATOCELLULAR ADENOMA OR CARCINOMA, CHOLANGIOCARCINOMA: LUNG: ALVEOLAR/BRONCHIOLAR ADENOMA, ALVEOLAR/BRONCHIOLAR)?
Answer: active; positive
